Measured values from ChEMBL document CHEMBL4609992, “Discovery of novel small molecule induced selective degradation of the bromodomain and extra-terminal (BET) bromodomain protein BRD4 and BRD2 with cellular potencies” (Bioorg Med Chem, 2020).

How the values were obtained:
RPMI-8226 = test: Growth inhibition of human RPMI8226 cells assessed as cell growth inhibition incubated for 48 hrs by sulforhodamine B assay; format: functional; conditions: RPMI-8226, 48 h
HOP-92 = test: Growth inhibition of human HOP92 cells assessed as cell growth inhibition incubated for 48 hrs by sulforhodamine B assay; format: functional; conditions: HOP-92, 48 h
MV4-11 [1] = test: Cell cycle arrest in human MV4-11 cells assessed as accumulation at G1 phase at 100 nM measured after 24 hrs by RNase/propidium iodide staining based FACScan flow cytometry (reference value: 59.66 %); format: functional
CWR22R = test: Antiproliferative activity against human 22Rv1 cells assessed as reduction in cell viability; format: functional, cell-based
RXF 393 = test: Growth inhibition of human RXF393 cells assessed as cell growth inhibition incubated for 48 hrs by sulforhodamine B assay; format: functional; conditions: RXF 393, 48 h
Malme-3M = test: Growth inhibition of human MALME-3M cells assessed as cell growth inhibition incubated for 48 hrs by sulforhodamine B assay; format: functional
786-0 = test: Growth inhibition of human 786-0 cells assessed as cell growth inhibition incubated for 48 hrs by sulforhodamine B assay; format: functional; conditions: 786-0, 48 h
SF-539 = test: Growth inhibition of human SF539 cells assessed as cell growth inhibition incubated for 48 hrs by sulforhodamine B assay; format: functional; conditions: SF-539, 48 h
LNCaP-Clone-FGC = test: Antiproliferative activity against human LNCaP-FGC cells assessed as reduction in cell viability; format: functional, cell-based
EKVX = test: Growth inhibition of human EKVX cells assessed as cell growth inhibition incubated for 48 hrs by sulforhodamine B assay; format: functional
SK-OV-3 = test: Growth inhibition of human SKOV3 cells assessed as cell growth inhibition incubated for 48 hrs by sulforhodamine B assay; format: functional; conditions: SK-OV-3, 48 h
OVCAR-5 = test: Growth inhibition of human OVCAR5 cells assessed as cell growth inhibition incubated for 48 hrs by sulforhodamine B assay; format: functional; conditions: OVCAR-5, 48 h
NCI-H322M = test: Growth inhibition of human NCI-H322M cells assessed as cell growth inhibition incubated for 48 hrs by sulforhodamine B assay; format: functional
MV4-11 [2] = test: Induction of apoptosis in human MV4-11 cells at < 30 nM measured after 48 hrs by Annexin V-FITC/propidium iodide staining based FACScan flow cytometry relative to control; format: functional
MOLT-4 = test: Growth inhibition of human MOLT4 cells assessed as cell growth inhibition incubated for 48 hrs by sulforhodamine B assay; format: functional; conditions: MOLT-4, 48 h
HOP-62 = test: Growth inhibition of human HOP62 cells assessed as cell growth inhibition incubated for 48 hrs by sulforhodamine B assay; format: functional; conditions: HOP-62, 48 h
OVCAR-4 = test: Growth inhibition of human OVCAR4 cells assessed as cell growth inhibition incubated for 48 hrs by sulforhodamine B assay; format: functional; conditions: OVCAR-4, 48 h
T47D = test: Growth inhibition of human T47D cells assessed as cell growth inhibition incubated for 48 hrs by sulforhodamine B assay; format: functional
IGROV-1 = test: Growth inhibition of human IGROV1 cells assessed as cell growth inhibition incubated for 48 hrs by sulforhodamine B assay; format: functional; conditions: IGROV-1, 48 h
M14 = test: Growth inhibition of human M14 cells assessed as cell growth inhibition incubated for 48 hrs by sulforhodamine B assay; format: functional; conditions: M14, 48 h
PC-3 [3] = test: Growth inhibition of human PC3 cells assessed as cell growth inhibition incubated for 48 hrs by sulforhodamine B assay; format: functional; conditions: PC-3, 48 h
MDA-MB-468 = test: Growth inhibition of human MDA-MB-468 cells assessed as cell growth inhibition incubated for 48 hrs by sulforhodamine B assay; format: functional; conditions: MDA-MB-468, 48 h
HCC827 = test: Antiproliferative activity against human HCC827 cells assessed as reduction in cell viability; format: functional, cell-based
SNB-19 = test: Growth inhibition of human SNB19 cells assessed as cell growth inhibition incubated for 48 hrs by sulforhodamine B assay; format: functional; conditions: SNB-19, 48 h
SNB-75 = test: Growth inhibition of human SNB75 cells assessed as cell growth inhibition incubated for 48 hrs by sulforhodamine B assay; format: functional; conditions: SNB-75, 48 h
PC-3 [4] = test: Antiproliferative activity against human PC3 cells assessed as reduction in cell viability; format: functional, cell-based
Hs-578T = test: Growth inhibition of human Hs 578T cells assessed as cell growth inhibition incubated for 48 hrs by sulforhodamine B assay; format: functional
NCI-H226 = test: Growth inhibition of human NCI-H226 cells assessed as cell growth inhibition incubated for 48 hrs by sulforhodamine B assay; format: functional; conditions: NCI-H226, 48 h
SK-MEL-5 = test: Growth inhibition of human SK-MEL-5 cells assessed as cell growth inhibition incubated for 48 hrs by sulforhodamine B assay; format: functional; conditions: SK-MEL-5, 48 h
MCF7 = test: Growth inhibition of human MCF7 cells assessed as cell growth inhibition incubated for 48 hrs by sulforhodamine B assay; format: functional; conditions: MCF7, 48 h
K562 = test: Growth inhibition of human K562 cells assessed as cell growth inhibition incubated for 48 hrs by sulforhodamine B assay; format: functional; conditions: K562, 48 h
COLO 205 = test: Growth inhibition of human COLO205 cells assessed as cell growth inhibition incubated for 48 hrs by sulforhodamine B assay; format: functional; conditions: COLO 205, 48 h
UACC-62 = test: Growth inhibition of human UACC62 cells assessed as cell growth inhibition incubated for 48 hrs by sulforhodamine B assay; format: functional; conditions: UACC-62, 48 h
NCI-H1975 = test: Antiproliferative activity against human NCI-H1975 cells assessed as reduction in cell viability; format: functional, cell-based
OVCAR-3 = test: Growth inhibition of human OVCAR3 cells assessed as cell growth inhibition incubated for 48 hrs by sulforhodamine B assay; format: functional; conditions: OVCAR-3, 48 h
SF-268 = test: Growth inhibition of human SF268 cells assessed as cell growth inhibition incubated for 48 hrs by sulforhodamine B assay; format: functional; conditions: SF-268, 48 h
A549 [5] = test: Antiproliferative activity against human A549 cells assessed as reduction in cell viability; format: functional, cell-based
A549 [6] = test: Growth inhibition of human A549/ATCC cells assessed as cell growth inhibition incubated for 48 hrs by sulforhodamine B assay; format: functional; conditions: A549, 48 h
SK-MEL-2 = test: Growth inhibition of human SK-MEL-2 cells assessed as cell growth inhibition incubated for 48 hrs by sulforhodamine B assay; format: functional; conditions: SK-MEL-2, 48 h
MDA-MB-435 = test: Growth inhibition of human MDA-MB-435 cells assessed as cell growth inhibition incubated for 48 hrs by sulforhodamine B assay; format: functional; conditions: MDA-MB-435, 48 h
NCI-H522 = test: Growth inhibition of human NCI-H522 cells assessed as cell growth inhibition incubated for 48 hrs by sulforhodamine B assay; format: functional; conditions: NCI-H522, 48 h
[7] = target: Protein cereblon/Bromodomain-containing protein 3/Cullin-4A (Homo sapiens, UniProt Q15059+Q96SW2+Q13619); test: Protac activity at cereblon/cullin4A/BRD3 in human MV4-11 cells assessed as induction of BRD3 degradation at 50 nM measured after 18 hrs by Western blot analysis; format: cell-based; conditions: mv4-11, 18 h, 0.05 µM
Sequence of Protein cereblon/Bromodomain-containing protein 3/Cullin-4A (Q15059 whole entry): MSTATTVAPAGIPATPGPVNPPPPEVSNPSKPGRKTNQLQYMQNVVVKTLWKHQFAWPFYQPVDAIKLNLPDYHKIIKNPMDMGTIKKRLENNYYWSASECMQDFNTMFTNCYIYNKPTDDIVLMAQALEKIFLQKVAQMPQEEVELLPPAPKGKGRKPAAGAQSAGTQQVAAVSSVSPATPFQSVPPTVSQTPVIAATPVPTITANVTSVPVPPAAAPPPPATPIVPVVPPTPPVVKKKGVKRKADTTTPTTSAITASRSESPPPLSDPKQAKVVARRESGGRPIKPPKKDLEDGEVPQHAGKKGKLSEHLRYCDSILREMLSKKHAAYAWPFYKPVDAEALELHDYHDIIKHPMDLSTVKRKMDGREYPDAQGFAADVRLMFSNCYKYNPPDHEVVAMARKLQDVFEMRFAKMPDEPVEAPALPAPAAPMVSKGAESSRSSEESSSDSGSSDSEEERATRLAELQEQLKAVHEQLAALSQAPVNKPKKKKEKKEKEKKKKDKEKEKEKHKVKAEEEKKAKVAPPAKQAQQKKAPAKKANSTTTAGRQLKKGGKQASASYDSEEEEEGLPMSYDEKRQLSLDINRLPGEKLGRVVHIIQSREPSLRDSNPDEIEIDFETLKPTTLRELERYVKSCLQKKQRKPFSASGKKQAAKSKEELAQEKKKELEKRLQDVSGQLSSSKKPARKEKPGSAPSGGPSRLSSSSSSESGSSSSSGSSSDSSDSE
Sequence of Protein cereblon/Bromodomain-containing protein 3/Cullin-4A (Q96SW2 whole entry): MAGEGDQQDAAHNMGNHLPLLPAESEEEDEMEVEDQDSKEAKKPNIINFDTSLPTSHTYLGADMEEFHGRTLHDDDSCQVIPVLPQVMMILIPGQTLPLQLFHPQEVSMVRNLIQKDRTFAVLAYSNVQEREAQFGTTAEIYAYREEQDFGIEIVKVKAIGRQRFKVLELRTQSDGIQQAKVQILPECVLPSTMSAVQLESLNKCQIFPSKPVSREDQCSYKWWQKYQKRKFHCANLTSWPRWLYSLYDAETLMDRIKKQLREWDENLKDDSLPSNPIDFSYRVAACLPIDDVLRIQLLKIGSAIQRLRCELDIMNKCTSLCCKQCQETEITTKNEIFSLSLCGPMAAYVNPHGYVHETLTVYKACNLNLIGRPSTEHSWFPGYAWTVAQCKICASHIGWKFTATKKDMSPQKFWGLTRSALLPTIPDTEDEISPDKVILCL
Sequence of Protein cereblon/Bromodomain-containing protein 3/Cullin-4A (Q13619 whole entry): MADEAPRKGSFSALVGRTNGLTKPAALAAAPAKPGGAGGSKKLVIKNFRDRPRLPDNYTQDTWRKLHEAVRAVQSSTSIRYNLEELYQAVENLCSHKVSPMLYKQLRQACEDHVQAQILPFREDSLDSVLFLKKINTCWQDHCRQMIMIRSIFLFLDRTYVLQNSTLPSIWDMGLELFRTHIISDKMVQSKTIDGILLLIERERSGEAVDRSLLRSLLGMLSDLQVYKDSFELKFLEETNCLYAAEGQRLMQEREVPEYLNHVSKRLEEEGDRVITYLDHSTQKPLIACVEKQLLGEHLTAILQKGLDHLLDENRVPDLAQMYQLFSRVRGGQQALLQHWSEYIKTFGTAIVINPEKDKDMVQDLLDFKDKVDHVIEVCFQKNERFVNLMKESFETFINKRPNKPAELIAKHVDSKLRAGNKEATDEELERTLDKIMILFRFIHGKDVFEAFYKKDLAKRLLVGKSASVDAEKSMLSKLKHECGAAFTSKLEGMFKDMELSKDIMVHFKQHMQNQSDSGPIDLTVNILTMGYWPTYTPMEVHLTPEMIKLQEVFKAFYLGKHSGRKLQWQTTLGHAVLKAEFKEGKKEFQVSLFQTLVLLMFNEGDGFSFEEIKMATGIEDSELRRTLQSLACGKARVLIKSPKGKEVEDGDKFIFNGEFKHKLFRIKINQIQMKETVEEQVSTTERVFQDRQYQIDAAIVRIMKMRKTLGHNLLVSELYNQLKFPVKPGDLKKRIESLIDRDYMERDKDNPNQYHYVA

COc1ccccc1S(=O)(=O)Nc1ccc2c3c(cc(CCC(=O)NCCCCNc4cccc5c4C(=O)N(C4CCC(=O)NC4=O)C5=O)cc13)C(=O)N2C (configuration not stated)
GI50 (RPMI-8226): 683 nM | GI50 (HOP-92): 26 nM | Activity (MV4-11 [1]): 71.37% | IC50 (CWR22R): 81 nM | GI50 (RXF 393): 864 nM | GI50 (Malme-3M): 161 nM | GI50 (786-0): 2110 nM | GI50 (SF-539): 752 nM | IC50 (LNCaP-Clone-FGC): 910 nM | GI50 (EKVX): 7480 nM | GI50 (SK-OV-3): 1630 nM | GI50 (OVCAR-5): 2740 nM | GI50 (NCI-H322M): 355 nM | Activity (MV4-11 [2]): 86.86% | GI50 (MOLT-4): 31 nM | GI50 (HOP-62): 416 nM | GI50 (OVCAR-4): 259 nM | GI50 (T47D): 34 nM | GI50 (IGROV-1): 145 nM | GI50 (M14): 937 nM | GI50 (PC-3 [3]): 248 nM | GI50 (MDA-MB-468): 20 nM | IC50 (HCC827): 580 nM | GI50 (SNB-19): 475 nM | GI50 (SNB-75): 89 nM | IC50 (PC-3 [4]): 932 nM | GI50 (Hs-578T): 186 nM | GI50 (NCI-H226): 456 nM | GI50 (SK-MEL-5): 1120 nM | GI50 (MCF7): 303 nM | GI50 (K562): 422 nM | GI50 (COLO 205): 495 nM | GI50 (UACC-62): 5450 nM | IC50 (NCI-H1975): 459 nM | GI50 (OVCAR-3): 1830 nM | GI50 (SF-268): 366 nM | IC50 (A549 [5]): 13700 nM | GI50 (A549 [6]): 5260 nM | GI50 (SK-MEL-2): 1120 nM | GI50 (MDA-MB-435): 819 nM | GI50 (NCI-H522): 2740 nM | Activity [7]: Not Active
